The text below walks through data of PubChem BioAssay (NCI).

Some test systems named below: NCI-H23 lung; HT29 colon; M14 melanoma; RPMI-8226 leukemia; SNB-19 CNS; NCI-H522 lung; EKVX NSCLC; A549 NSCLC; CAKI-1 renal; HCT-116 colon; LOX IMVI melanoma; RXF 393 renal; UO-31 renal; HOP-92 NSCLC; T-47D breast.
What all share (test): NCI tumour cell line growth inhibition, 48 h

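How tested: cells in 96-well plates exposed to compound for 48 hours at five concentrations. TGI marks complete inhibition of growth.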 Some results are limits rather than exact numbers.

Take `O=C(Nc1ccccc1[N+](=O)[O-])C(=O)C(C(=O)c1ccccc1-c1ccccc1)C1OC(=O)c2ccccc21` (stereo not given): the TGI came to 33.6 µM in the assay with NCI-H23 lung; 59.2 µM with HT29 colon; 28.9 µM with M14 melanoma; 78.3 µM in the assay on RPMI-8226 leukemia; 33.2 µM in the assay on SNB-19 CNS; 25.3 µM in the assay with NCI-H522 lung. Also, the TGI in the assay with EKVX NSCLC was 51 µM; with A549 NSCLC, 72.6 µM; with CAKI-1 renal, more than 100 µM; with HCT-116 colon, 38.4 µM; in the assay on LOX IMVI melanoma, 36 µM; in the assay with RXF 393 renal, 25.9 µM. The same compound came in with a TGI in the assay on UO-31 renal of 29.8 µM.

In the case of `O=C1COc2cc3c(cc2N1)SCCC(=O)N3`, the TGI in the assay on NCI-H23 lung, in the assay with HT29 colon, in the assay with M14 melanoma, in the assay on RPMI-8226 leukemia, in the assay with SNB-19 CNS and with NCI-H522 lung was more than 100 µM in each case. The TGI with EKVX NSCLC, with A549 NSCLC, in the assay on HOP-92 NSCLC, in the assay with CAKI-1 renal, in the assay with HCT-116 colon and in the assay on UO-31 renal was more than 100 µM in each case.

On to `COc1ccc(C(c2cc(OC)c(OC)c(OC)c2)N2C(=O)CCC2C(=O)O)cc1` (stereo not given), for which the TGI in the assay with NCI-H23 lung, with HT29 colon, with T-47D breast, with M14 melanoma, with RPMI-8226 leukemia and in the assay on SNB-19 CNS was more than 100 µM each time. Also, the TGI in the assay with NCI-H522 lung, with EKVX NSCLC, in the assay with A549 NSCLC, in the assay with HOP-92 NSCLC, in the assay with CAKI-1 renal and with HCT-116 colon was more than 100 µM each time. Moreover, the TGI in the assay on LOX IMVI melanoma and in the assay with UO-31 renal was more than 100 µM in each case.

Consider `C=CCN(N=O)C(=O)N(CCCCC(NC(C)=O)C(=O)NCc1ccccc1)Cc1ccccc1` (stereo not given), for which the TGI is more than 100 µM in the assay with NCI-H23 lung; 36.8 µM in the assay with HT29 colon; 62.4 µM in the assay on M14 melanoma; 41.9 µM in the assay with RPMI-8226 leukemia; more than 100 µM in the assay on SNB-19 CNS; 39.9 µM in the assay on NCI-H522 lung. Besides, the TGI in the assay on EKVX NSCLC is more than 100 µM; in the assay on A549 NSCLC it was more than 100 µM; in the assay with HOP-92 NSCLC, 57.3 µM; in the assay with CAKI-1 renal, more than 100 µM; in the assay on LOX IMVI melanoma, 55.3 µM; in the assay with RXF 393 renal, 93.1 µM. This compound also had a TGI in the assay on UO-31 renal of 91.7 µM.

Turning to `CC(=O)OC1CC2C(C)(C)OC(=O)CC(OC(C)=O)[C@]2(C)C2CCC3(C)C(=CCC3c3ccoc3)[C@]12C` (stereo not given in full), the TGI in the assay on NCI-H23 lung was more than 100 µM; in the assay on HT29 colon, 39.3 µM; in the assay on M14 melanoma, 46.5 µM; in the assay with RPMI-8226 leukemia, more than 100 µM; in the assay with SNB-19 CNS, more than 100 µM; in the assay on NCI-H522 lung it was 81.2 µM. Besides, the TGI is more than 100 µM in the assay with EKVX NSCLC; more than 100 µM in the assay on A549 NSCLC; 29.9 µM with HOP-92 NSCLC; more than 100 µM in the assay with CAKI-1 renal; 58.6 µM in the assay with HCT-116 colon; more than 100 µM in the assay on LOX IMVI melanoma. Also, the TGI in the assay on RXF 393 renal and with UO-31 renal was more than 100 µM each time.

With `C/C(CC(=O)Nc1ccccc1)=N\NC(N)=S`, the TGI in the assay on NCI-H23 lung, in the assay with HT29 colon, with M14 melanoma, in the assay on RPMI-8226 leukemia, in the assay with NCI-H522 lung and in the assay on EKVX NSCLC was more than 100 µM in each case. The TGI in the assay with A549 NSCLC, in the assay with HOP-92 NSCLC, in the assay on HCT-116 colon, with LOX IMVI melanoma, with RXF 393 renal and in the assay with UO-31 renal was more than 100 µM throughout.

On to `O=C(NN1C(=O)C(Cl)C1c1cccc(Cl)c1)c1ccccc1O` (stereo not given), for which the TGI with NCI-H23 lung, with HT29 colon, in the assay with M14 melanoma, with SNB-19 CNS, in the assay on NCI-H522 lung and in the assay with A549 NSCLC was more than 100 µM each time. Further, the TGI in the assay with HCT-116 colon, in the assay with LOX IMVI melanoma, with RXF 393 renal and in the assay with UO-31 renal was more than 100 µM throughout.

For the compound `O=[N+]([O-])c1cc(Cl)ccc1S(=O)(=O)c1ccc(Cl)cc1[N+](=O)[O-]`, the TGI is 29.2 µM in the assay on NCI-H23 lung; 30.9 µM in the assay on HT29 colon; 30.4 µM in the assay with M14 melanoma; more than 100 µM in the assay with RPMI-8226 leukemia; 31.4 µM with SNB-19 CNS; 29.9 µM in the assay with NCI-H522 lung. Further, the TGI in the assay with A549 NSCLC was determined as 70 µM; in the assay with HOP-92 NSCLC, 32.6 µM; with CAKI-1 renal, 33.9 µM; in the assay on HCT-116 colon, 29.2 µM; with LOX IMVI melanoma it was 32.5 µM; with RXF 393 renal, 29.5 µM. The compound further gave a TGI with UO-31 renal of 30.9 µM.

As to `O=c1[nH]cc(COCC(O)CO)c(=O)[nH]1` (stereo not given), the TGI with NCI-H23 lung, in the assay with HT29 colon, with M14 melanoma, in the assay with RPMI-8226 leukemia, in the assay on SNB-19 CNS and in the assay with NCI-H522 lung was more than 100 µM each time. Further, the TGI with EKVX NSCLC, in the assay on A549 NSCLC, with HOP-92 NSCLC, in the assay on CAKI-1 renal, in the assay with HCT-116 colon and in the assay with LOX IMVI melanoma was more than 100 µM throughout. Besides, the TGI in the assay with RXF 393 renal and in the assay with UO-31 renal was more than 100 µM in each case.
